Laboratory results as given in US20160221965A1, “DISUBSTITUTED TRIFLUOROMETHYL PYRIMIDINONES AND THEIR USE” (BAYER PHARMA AKTIENGESELLSCHAFT, priority 2013, published 2016).

Columns and labels:
Assay type in all cases: cell-based
human CCR2 = molecular target: T1, human CCR2 (Homo sapiens, UniProt P41597); test: Functional Ca2+ release test (B-1); conditions: Chem-1 cell line transfected with human CCR2, inhibition of MCP-1 effect, MCP-1 at EC50 (about 5 nM), Fluo-4
T1 construct: host or cells: Chem-1 cell line
T1 sequence (P41597 1-360 isoform P41597-2): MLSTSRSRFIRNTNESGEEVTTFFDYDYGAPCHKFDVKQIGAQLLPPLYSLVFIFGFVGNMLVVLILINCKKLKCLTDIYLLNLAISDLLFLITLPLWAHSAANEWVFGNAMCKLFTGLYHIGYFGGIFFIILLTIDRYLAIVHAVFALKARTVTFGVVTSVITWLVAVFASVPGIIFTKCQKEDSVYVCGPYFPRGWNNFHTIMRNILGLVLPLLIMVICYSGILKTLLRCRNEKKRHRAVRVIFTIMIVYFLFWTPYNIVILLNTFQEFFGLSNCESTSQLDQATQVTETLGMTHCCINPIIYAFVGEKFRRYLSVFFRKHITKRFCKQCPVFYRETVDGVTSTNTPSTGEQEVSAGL
Experimental: The antagonistic action of test substances on CCR2 was determined in a functional Ca^2+ release test. Binding of CCL2/MCP-1 to CCR2 leads to a change in the conformation of the receptor resulting in Gi/Gq protein activation and intracellular signal cascade. This involves, inter alia, an intracellular Ca^2+ release. The test cell used was a Chem-1 cell line transfected with human CCR2 (ChemiSCREEN™ CCR2B Calcium-Optimized FLIPR Cell Line, Merck Millipore).
(§1) The test substances were dissolved in dimethyl sulphoxide (DMSO) at a concentration of 10 mM and serially diluted with DMSO in steps of 1:3.16 for a 10-point dose/activity analysis. According to the desired test concentrations, the substances were pre-diluted in Tyrode with 2 mM CaCl2 and 0.05% BSA.
The cells, cultivated in DMEM high glucose [supplemented with 10% FCS, 1 mM pyruvate, 15 mM HEPES, 500 μg/ml geniticin and non-essential amino acids (NEAA)], were sown at 5000 cells/25 μl in 384 well, μCLEAR/black cell culture plates from Greiner (#781092) and incubated at 37° C. for 24 h. The sowing medium consisted of DMEM high glucose [supplemented with 5% FCS, 1 mM pyruvate, 15 mM HEPES, 50 U/ml penicillin, 50 μg/ml streptomycin and non-essential amino acids (NEAA)]. The medium was then removed and the cells were charged for 60 min at 37° C. with Fluo-4 dye [25 μl Tyrode with 3 μM Fluo-4 AM (1 mM DMSO stock solution), 0.4 mg/ml Brilliant Black, 2.5 mM probenicid, 0.03% Pluronic F-127]. The cells were pre-incubated for 10 min with 10 μl of the test substances diluted in buffer, and 20 μl of agonist solution (MCP-1 in Tyrode with 0.05% BSA) were then added. MCP-1 was employed at the concentration which corresponds to the EC50 which had been determined in a preliminary test (usually about 5 nM). Ca^2+ release was monitored over a period of 120 s in 1 s increments in a proprietary fluorescence imaging reader. The molar concentration of the test substance which caused 50% inhibition of the MCP-1 effect (IC50) was determined using a 4-parameter logistic function (Hill function).

murine CCR2 [1] = molecular target: T2, murine CCR2 (Mus musculus, UniProt P51683); test: Functional β-arrestin recruiting test with murine MCP-1 (B-2b); conditions: U2OS β-arrestin cell line transfected with murine CCR2; agonist murine MCP-1
T2 construct: host or cells: U2OS β-arrestin cell line
Experimental: (§2) The antagonistic action of test substances on CCR2 was determined in a β-arrestin test. The PathHunter β-arrestin GPCR test system (DiscoveRx Corporation, Ltd.) is a cell-based functional method for detecting binding of β-arrestin to an activated receptor. The molecular basis is a β-galactosidase complementation measured by the enzymatic conversion of a chemiluminescent substrate. The test cell used was a U2OS β-arrestin cell line transfected with murine CCR2 (93-0543C3, DiscoveRx Corporation, Ltd.).
as §1
(§3) The cells, cultivated in MEM Eagle (supplemented with 10% FCS, 50 U/ml of penicillin, 50 μg/ml of streptomycin, 250 μg/ml of hygromycin and 500 μg/ml of geniticin), were sown at 2000 cells/25 μl in 384 well, μCLEAR/black cell culture plates from Greiner (#781092) and incubated at 37° C. for 24 h. The sowing medium consisted of Opti-MEM (supplemented with 1% FCS, 50 U/ml of penicillin and 50 μg/ml of streptomycin). The cells were pre-incubated for 10 min with 10 μl of the test substances diluted in buffer, and 10 μl of agonist solution [human MCP-1 (PeproTech, #300-04) in Tyrode with 0.05% BSA] were then added. The human MCP-1 was employed at the concentration which corresponds to the EC50 which had been determined in a preliminary test (usually about 3 nM). After 90 min of incubation at 37° C., the solution was removed, and recruitment of β-arrestin to CCR2 was detected with the aid of the PathHunter detection reagent (93-001, DiscoveRx Corporation, Ltd.) according to the instructions of the manufacturer. Luminescence was measured after an incubation time of 60 min using a proprietary luminescence imaging measuring instrument. The molar concentration of the test substance which caused 50% inhibition of the MCP-1 effect (IC50) was determined using a 4-parameter logistic function (Hill function).
The test was carried out in a manner identical to that described above under B-2a, but using murine MCP-1 (PeproTech, #250-10) as agonist.

murine CCR2 [2] = molecular target: T2, murine CCR2; test: Functional β-arrestin recruiting test with human MCP-1 (B-2a); conditions: U2OS β-arrestin cell line transfected with murine CCR2; agonist human MCP-1 at EC50 (about 3 nM)
Experimental: as §2, §1, §3

T2 sequence (P51683 whole entry): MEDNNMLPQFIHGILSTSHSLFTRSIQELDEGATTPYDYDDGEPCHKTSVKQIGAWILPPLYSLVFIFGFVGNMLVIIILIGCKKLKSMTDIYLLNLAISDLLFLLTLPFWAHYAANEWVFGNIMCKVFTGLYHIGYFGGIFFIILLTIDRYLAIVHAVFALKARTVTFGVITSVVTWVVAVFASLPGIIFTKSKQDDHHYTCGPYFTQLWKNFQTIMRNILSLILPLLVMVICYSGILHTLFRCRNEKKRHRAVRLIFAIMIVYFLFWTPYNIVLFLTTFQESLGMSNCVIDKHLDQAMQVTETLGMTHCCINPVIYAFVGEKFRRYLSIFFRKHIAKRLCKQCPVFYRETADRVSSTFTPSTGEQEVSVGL

Structure (SMILES)	IC50 (human CCR2) [nM]	IC50 (murine CCR2 [1]) [nM]	IC50 (murine CCR2 [2]) [nM]
Nc1nc(C(F)(F)F)c(Cc2cnc(Cl)c(Cl)c2)c(=O)[nH]1 [Example 59]	11	7280	–
Cc1cc(Oc2c(C(F)(F)F)nc(N)[nH]c2=O)ccc1Cl [Example 72]	1.5	545	–
Nc1nc(C(F)(F)F)c(Oc2ccc(Cl)c(OC(F)(F)F)c2)c(=O)[nH]1 [Example 57]	1.8	2270	–
Nc1nc(C(F)(F)F)c(Oc2cccc(C(F)(F)F)c2)c(=O)[nH]1 [Example 75]	21	9490	–
Nc1nc(C(F)(F)F)c(Oc2ccc(Cl)cc2)c(=O)[nH]1 [Example 73]	38	2310	–
Nc1nc(C(F)(F)F)c(S(=O)(=O)c2ccc(Cl)c(Cl)c2)c(=O)[nH]1 [Example 63]	326	2200	–
CC(c1ccc(Cl)c(Cl)c1)c1c(C(F)(F)F)nc(N)[nH]c1=O (centres unmarked) [Example 70]	45	3710	–
Nc1nc(C(F)(F)F)c(Sc2ccc(Cl)cc2)c(=O)[nH]1 [Example 16, 2-amino-5-[(4-chlorophenyl)sulphanyl]-6-(trifluoromethyl)pyrimidin-4(3H)-one]	31	–	640
CCc1nc(C(F)(F)F)c(Cc2ccc(C(F)(F)F)c(Cl)c2)c(=O)[nH]1 [Example 19, 5-[3-Chloro-4-(trifluoromethyl)benzyl]-2-ethyl-6-(trifluoromethyl)pyrimidin-4(3H)-one]	63	–	980
O=c1[nH]c(C2CC2)nc(C(F)(F)F)c1Cc1cccc(Cl)c1 [Example 21, 5-(3-chlorobenzyl)-2-cyclopropyl-6-(trifluoromethyl)pyrimidin-4(3H)-one]	230	–	590
Nc1nc(C(F)(F)F)c(Sc2ccc(Cl)c(C(F)(F)F)c2)c(=O)[nH]1 [Example 17, 2-amino-5-{[4-chloro-3-(trifluoromethyl)phenyl]sulphanyl}-6-(trifluoromethyl)pyrimidin-4(3H)-one]	4.1	–	160
NC(=O)Cc1nc(C(F)(F)F)c(Cc2ccc(C(F)(F)F)c(Cl)c2)c(=O)[nH]1 [Example 35, 2-{5-[3-Chloro-4-(trifluoromethyl)benzyl]-6-oxo-4-(trifluoromethyl)-1,6-dihydropyrimidin-2-yl}acetamide]	150	–	3700
CCc1nc(C(F)(F)F)c(Oc2ccc(Cl)c(Cl)c2)c(=O)[nH]1 [Example 33, 5-(3,4-dichlorophenoxy)-2-ethyl-6-(trifluoromethyl)pyrimidin-4(3H)-one]	15	–	74
NC(=O)Cc1nc(C(F)(F)F)c(Oc2cccc(Cl)c2)c(=O)[nH]1 [Example 38]	320	–	3300
NC(=O)Cc1nc(C(F)(F)F)c(Oc2ccc(F)c(C(F)(F)F)c2)c(=O)[nH]1 [Example 49]	91	–	380
Nc1nc(C(F)(F)F)c(Oc2cncc(Cl)c2)c(=O)[nH]1 [Example 12, 2-amino-5-[(5-chloropyridin-3-yl)oxy]-6-(trifluoromethyl)pyrimidin-4(3H)-one]	54	–	1000

Structure (SMILES)	IC50 (human CCR2) [nM]	IC50 (murine CCR2 [1]) [nM]	IC50 (murine CCR2 [2]) [nM]
NC(=O)Cc1nc(C(F)(F)F)c(Cc2cccc(C(F)(F)F)c2)c(=O)[nH]1 [Example 41]	270	–	2000
Nc1nc(C(F)(F)F)c(Cc2ccc(Cl)c(F)c2)c(=O)[nH]1 [Example 13, 2-amino-5-(4-chloro-3-fluorobenzyl)-6-(trifluoromethyl)pyrimidin-4(3H)-one]	69	–	330
CCc1nc(C(F)(F)F)c(Cc2cccc(C(F)(F)F)c2)c(=O)[nH]1 [Example 20, 2-ethyl-6-(trifluoromethyl)-5-[3-(trifluoromethyl)benzyl]pyrimidin-4(3H)-one]	300	–	1200
O=c1[nH]c(C2CC2)nc(C(F)(F)F)c1Cc1ccc(Cl)c(C(F)(F)F)c1 [Example 27, 5-[4-chloro-3-(trifluoromethyl)benzyl]-2-cyclopropyl-6-(trifluoromethyl)pyrimidin-4(3H)-one]	63	–	360
O=c1[nH]c(C2CC2)nc(C(F)(F)F)c1Oc1ccc(Cl)c(Cl)c1 [Example 25, 2-cyclopropyl-5-(3,4-dichlorophenoxy)-6-(trifluoromethyl)pyrimidin-4(3H)-one]	15	–	170
NC(=O)Cc1nc(C(F)(F)F)c(Cc2ccc(Cl)c(Cl)c2)c(=O)[nH]1 [Example 50]	65	–	460
Nc1nc(C(F)(F)F)c(Oc2ccc(F)c(F)c2)c(=O)[nH]1 [Example 10, 2-amino-5-(3,4-difluorophenoxy)-6-(trifluoromethyl)pyrimidin-4(3H)-one]	43	–	1300
O=c1[nH]c(C2CC2)nc(C(F)(F)F)c1Cc1ccc(Cl)c(F)c1 [Example 23, 5-(4-chloro-3-fluorobenzyl)-2-cyclopropyl-6-(trifluoromethyl)pyrimidin-4(3H)-one]	280	–	1200
Cc1ccc(Cc2c(C(F)(F)F)nc(CC(N)=O)[nH]c2=O)cc1Cl [Example 47]	49	–	830
CN(C)c1nc(C(F)(F)F)c(Oc2ccc(Cl)c(Cl)c2)c(=O)[nH]1 [Example 67]	55	–	1000
NC(=O)Cc1nc(C(F)(F)F)c(Cc2cc(F)cc(C(F)(F)F)c2)c(=O)[nH]1 [Example 42]	400	–	2800
Nc1nc(C(F)(F)F)c(Cc2ccc(Cl)c(C(F)(F)F)c2)c(=O)[nH]1 [Example 8, 2-amino-5-[4-chloro-3-(trifluoromethyl)benzyl]-6-(trifluoromethyl)pyrimidin-4(3H)-one]	33	–	160
O=c1[nH]c(CO)nc(C(F)(F)F)c1Oc1ccc(F)c(F)c1 [Example 53]	70	–	620
CCc1nc(C(F)(F)F)c(Cc2ccc(Cl)c(F)c2)c(=O)[nH]1 [Example 32, 5-(4-chloro-3-fluorobenzyl)-2-ethyl-6-(trifluoromethyl)pyrimidin-4(3H)-one]	220	–	540
Nc1nc(C(F)(F)F)c(Cc2ccc(C(F)(F)F)c(Cl)c2)c(=O)[nH]1 [Example 14, 2-amino-5-[3-chloro-4-(trifluoromethyl)benzyl]-6-(trifluoromethyl)pyrimidin-4(3H)-one]	71	–	810
